Measured values published in patent US11807852B2, “Compositions and methods for reactivating latent immunodeficiency virus” (The J. David Gladstone Institutes, a testamentary trust …, priority 2014, dated 2023).
Entries after “also recorded” stand apart in the source; their conditions may differ. Like-named read-outs stand apart in the source and are kept apart here.

How the values were obtained:
[1] = tested on: J-Lat cells (clone A2: LTR-Tat-IRES-GFP); assay type: cell-based; conditions: A2 J-Lat cells, single agent
Experimental: To test this hypothesis, J-Lat cells (clone A2: LTR-Tat-IRES-GFP) were treated with SMYD2 inhibitors. […] Both cell lines were co-treated with X2 and Ingenol 3,20-dibenzoate (a protein kinase C (PKC) activator), JQ1 (BET-bromodomain inhibitor), or the histone deacetylase (HDAC) inhibitor suberoylanilidehydroxamic acid (SAHA).

SMYD2 = SMYD2 (Homo sapiens, UniProt Q9NRG4); conditions: cited from earlier work
[2] = cited from earlier work
[3] = tested on: J-Lat A72 cell line (LTR-GFP)
Experimental: J-Lat (clones A2 and A72) cell lines were cultured as described in Jordan et al., EMBO J. 2003 Apr. 15:22(8):1868-77. Human αCD3/αCD28 beads (Life Technologies) were used at a concentration of 1 bead/cell ratio. JQ1 (Sigma-Aldrich) was used at a concentration of 0.1-10 μM. Ingenol 3,20-dibenzoate (Sigma-Aldrich) was used at concentrations of 5-200 nM, and SAHA (Sigma-Aldrich) was used at concentrations of 110 nM, 330 nM, or 1 μM.
HEK293T cells were obtained from the American Type Culture Collection. J-Lat (clones A2, A72, and 5A8) cell lines were described (Chan et al., 2013; Jordan et al., 2003). HEK293T cells were cultured in DMEM supplemented with 10% FBS, 1% L-glutamine and 1% penicillin-streptomycin (Life Technologies). J-Lat cells were cultured in RPMI supplemented with 10% FBS, 1% L-glutamine and 1% penicillin-streptomycin (Life Technologies). […] TNFα (Sigma-Aldrich) was used at 0.5-10 ng/ml. Human αCD3/αCD28 Dynabeads (Invitrogen) were used at a 1 bead/cell ratio. JQ1 (Cayman Chemical) was used at 0.1-10 μM. Ingenol 3,20-dibenzoate (Santa Cruz Biotechnology) was used at 5-200 nM, and SAHA (Merck) was used at 110 nM, 330 nM, or 1 μM. Phorbol 12-myristate 13-acetate (PMA) (Sigma) was used at 10 nM and ionomycin (Sigma) was used at a concentration of 500 nM. UNC926 (Tocris Bioscience) was used at a concentration of 10 nM-100 μM. AZ505. AZ506, and AZ391 were used at a concentration of 10 nM-10 μM.
ShRNA-expressing lentiviral vectors were purchased from Sigma-Aldrich. The pLKO.1 vector containing a scrambled shRNA was used as control. […] J-Lat 5A8, A72 and A2 cells were spininfected with virus (1 ng of p24 per 10^6 cells) containing shRNAs against KMTs or nontargeting control shRNAs and were selected with puronycin (2 μg/ml: Sigma). After 7 days of selection, cells were treated with the indicated concentration of drugs. The percentage of GFP^+ cells was determined after 18 h using a MACSQuant VYB FACS analyzer (Miltenyi Biotech GmbH). Cell viability was monitored by forward-and-side scatter analysis. Analysis was conducted on 3×10,000 live cells per condition. Data were analyzed using FlowJo 9.5 (Tree Star).

J-Lat 5A8 cells = test: SMYD5 shRNA knockdown in J-Lat 5A8 cells (qPCR, GFP flow cytometry); assay type: cell-based; conditions: for SMYD5 knockdown efficiency by qPCR: J-Lat 5A8 cells; for reactivation of viral latency (GFP) after CD3/28 antibody stimulation: suboptimal, medium or saturating doses, 24 hours
Experimental: ShRNA-expressing lentiviral vectors were purchased from Sigma-Aldrich. The plasmids TRCN000155095 (Target sequence: […]) (SEQ ID NO:76) and TRCN0000156306 (Target sequence: […]) (SEQ ID NO:77) were used to deplete SMYD5. The pLKO. I vector containing a scrambled shRNA was used as control. […]; 272:263-7), and titered for p24 content. […] Data were analyzed using FlowJo 9.5 (Tree Star).
RNA was isolated using RNeasy Plus Mini Kit (Qiagen) and reverse-transcribed using SuperScript III Reverse Transcriptase (Invitrogen) as per the manufacturer's instructions. Quantitative RT-PCR was carried out using Maxima SYBR Green qPCR Master Mix (Thermo Scientific) on SDS 2.4 software (Applied Biosystems) in a total volume of 12 μL. Primer efficiencies were around 100%. Dissociation curve analysis was performed after the end of the PCR to confirm the presence of a single and specific product.
To confirm results from the shRNA screen, SMYD5 was individually knocked down in J-Lat 5A8 cells. Cells were transduced with lentiviral vectors expressing two different shRNAs targeting SMYD5 or a scrambled control shRNA, followed by puromycin treatment to select successfully transduced cells. The shRNA knockdown was confirmed using qPCR and failed for #1 and was ˜50% effective for #2 (FIG. 26A). Cells were then stimulated with suboptimal, medium, or saturating doses of CD3/28 antibodies or were left unstimulated for 24 hours, followed by flow cytometry of GFP. […] To test effects of SMYD5 on basal HIV-1 transcription we analyzed RNAs from nonactivated control and SMYD5 knockdown cells with primers specific for the viral LTR; mRNAs for SMYD5 and the NF-κB factor p65 were used as controls (FIG. 26D). SMYD5 knockdown reduced basal HIV-1 transcription by ˜50% mirroring the knockdown efficiency of shRNA #2 (FIG. 26D). In independent experiments to investigate the biological role of SMYD5 during HIV transcription, HeLa cells were transfected with an HIV LTR luciferase construct and expression vectors for Tat and SMYD5. Overexpression of SMYD5 marked activation of a co-transfected viral LTR-luciferase reporter construct was observed (FIGS. 28A and 28B). To identify the target for SMYD5 in HIV-1 infection, we performed in vitro methylation assays with recombinant SMYD5 on purified human histones, Tat (aa 1-72) [SEQ ID NO. 39], NF-κB, RelA, Sp1, and P-TEFb components cyclin T1 and CDK9. Reactions included 3H-SAM and were performed with or without recombinant SMYD5 enzyme. After gel electrophoresis, coomassie staining and autoradiography no methylation was detected for RelA, Sp1, cyclin T1 and CDK9 (FIG. 27). However, histones H3 and H1 were weakly and Tat strongly methylated by SMYD5 (FIG. 27). To map the site of methylation in Tat, we performed in vitro methylation reactions using non-radiolabeled SAM and subjected them to reversed-phase liquid chromatography electrospray tandem mass spectrometry (LC-MS/MS). This analysis identified a single site, trimethylation of K41, identified in two distinct peptides (not shown). No mono or dimethylation at Tat K41 was observed.

L3MBTL1 = molecular target: T1, L3MBTL1 (Homo sapiens, UniProt Q9Y468); conditions: cited from earlier work
T1 sequence (Q9Y468 1-840): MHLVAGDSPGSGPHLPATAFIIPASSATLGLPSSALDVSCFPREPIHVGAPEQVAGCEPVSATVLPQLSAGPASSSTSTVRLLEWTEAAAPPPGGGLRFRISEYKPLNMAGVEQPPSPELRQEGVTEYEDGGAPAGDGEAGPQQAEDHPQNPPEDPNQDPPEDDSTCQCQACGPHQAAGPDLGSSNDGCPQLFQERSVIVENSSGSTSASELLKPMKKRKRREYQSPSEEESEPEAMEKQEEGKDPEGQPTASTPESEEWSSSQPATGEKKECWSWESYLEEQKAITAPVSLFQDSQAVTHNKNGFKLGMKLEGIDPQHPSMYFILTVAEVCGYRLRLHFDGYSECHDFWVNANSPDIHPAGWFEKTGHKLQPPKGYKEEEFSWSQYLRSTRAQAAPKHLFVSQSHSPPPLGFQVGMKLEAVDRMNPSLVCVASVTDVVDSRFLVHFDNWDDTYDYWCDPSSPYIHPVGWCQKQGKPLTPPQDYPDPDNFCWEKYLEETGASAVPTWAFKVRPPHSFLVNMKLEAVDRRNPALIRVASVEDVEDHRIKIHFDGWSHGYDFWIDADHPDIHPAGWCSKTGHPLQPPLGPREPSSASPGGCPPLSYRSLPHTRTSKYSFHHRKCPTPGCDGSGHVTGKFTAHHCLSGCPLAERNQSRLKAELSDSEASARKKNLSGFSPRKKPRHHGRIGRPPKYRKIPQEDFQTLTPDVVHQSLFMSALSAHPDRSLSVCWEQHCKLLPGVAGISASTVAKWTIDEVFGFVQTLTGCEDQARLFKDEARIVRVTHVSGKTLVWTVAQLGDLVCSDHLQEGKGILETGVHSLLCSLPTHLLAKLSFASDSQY

Sequence of SMYD2 (Q9NRG4 whole entry): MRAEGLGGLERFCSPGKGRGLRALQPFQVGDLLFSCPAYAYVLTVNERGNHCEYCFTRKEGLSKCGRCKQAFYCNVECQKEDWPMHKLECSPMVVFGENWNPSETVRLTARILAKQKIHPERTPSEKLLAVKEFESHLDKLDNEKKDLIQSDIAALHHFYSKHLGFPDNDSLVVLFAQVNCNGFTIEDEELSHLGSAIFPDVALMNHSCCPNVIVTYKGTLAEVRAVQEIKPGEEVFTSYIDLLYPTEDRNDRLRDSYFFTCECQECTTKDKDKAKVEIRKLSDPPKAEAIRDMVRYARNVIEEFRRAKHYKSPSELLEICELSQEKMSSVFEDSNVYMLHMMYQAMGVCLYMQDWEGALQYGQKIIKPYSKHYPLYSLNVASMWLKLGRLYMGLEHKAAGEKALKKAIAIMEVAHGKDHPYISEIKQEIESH

In the case of `O=C1COc2c(CCNCCN(C(=O)CCNCCc3ccc(Cl)c(Cl)c3)C3CCCCC3)ccc(O)c2N1` [AZ505, N-cyclohexyl-3-((3,4-dichlorophenethyl)amino)-N-(2-((2-(5-hydroxy-3-oxo-3,4-dihydro-2H-benzo[b][1,4]oxazin-8-yl)ethyl)amino)ethyl)propanamide bis(2,2,2-trifluoroacetate), reference compound], the “activation of HIV transcription / reactivation of the HIV-LTR (GFP)” value [1] is listed as “failure of AZ505 to effectively activate HIV transcription”, the “Kd compared with the p53 peptide” value (SMYD2) is listed as “approximately sevenfold lower than the p53 peptide” and the cell permeability ([2]; bis(2,2,2-trifluoroacetate)) is listed as “lack of cell permeability; also recorded: not cell-penetrable”.
In the case of `O=C(NCCCN1CCCC1)c1cncc(-c2ccccc2N2CCN(CCc3c[nH]c4ccccc34)CC2)c1` [AZ506], the “activation of GFP expression / reactivation of the HIV-LTR” value ([3]; A72 J-Lat cells, single agent) is given as “activated GFP expression at high concentrations” and the cell permeability [2] is given as “cell-permeable”.
For “shRNA #1: lentiviral shRNA targeting SMYD5 (SEQ ID NO:74) (CCGGGCTATGGGAATTACAACCCATCTCGAGATGGGTTGTAATTCCCATAGCTTTTTTG)”, the “SMYD5 knockdown efficiency by qPCR” value (J-Lat 5A8 cells) was “failed” and the “reactivation of viral latency (GFP) after CD3/28 antibody stimulation” value (J-Lat 5A8 cells) was “had no effect”.
In the case of “shRNA #2: lentiviral shRNA targeting SMYD5 (SEQ ID NO:75) (CCGGCTGTGACACTCTGGAGTTGAACTCGAGTTCAACTCCAGAGTGTCACAGTTTTTTG)”, the “SMYD5 knockdown efficiency by qPCR” value (J-Lat 5A8 cells) is reported as ~50%, the “reduction of basal HIV-1 transcription (viral LTR RNA, RT-qPCR)” value (J-Lat 5A8 cells; nonactivated cells) is reported as ~50% and the “reactivation of viral latency (GFP) after CD3/28 antibody stimulation” value (J-Lat 5A8 cells) is reported as “suppressed reactivation of viral latency”.
In the case of UNC926 [reference compound], the “concentration at which activation is observed” value ([3]; A72, 10 nM-100 μM, without or with 0.1 ng/ml TNFα, 18 h) is reported as 100 µM, the “viability by forward-side scatter analysis” value ([3]; A72, up to 100 μM, 18 h) is reported as “No effect on viability” and the basal transcriptional activity ([3]; A72 J-Lat cells) is reported as “a doubling in basal transcriptional activity”. For the same compound, the Kd (L3MBTL1) was 3.9 µM.
